According to PubChem BioAssay AID1963835 (Molecular Pharmacology Branch, DTP, NCI, 2024):

Tested on: 699152-130-R-J1-PDC complex spheroid viability
Experiment: Anticancer human tumor 699152-130-R-J1-PDC patient-derived pancreatic carcinoma cell line growth inhibition [POLQ]
Details: for IC50: curve of first compound; for viability, T/C: stronger effect = lower value
Summary of the method: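 Complex spheroid viability model combining PDC tumour cells with endothelial (HUVEC) and MSC stromal cells. Novobiocin, ART-558 or RP6685 were tested singly and in combination with standard and investigational anticancer drugs. Each was titrated in half-log steps from near clinical Cmax, or from 10 microM where Cmax was unknown.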

[1] = second compound 0.0316 µM, first compound 0.00316 µM
[2] = second compound 0.0316 µM, first compound 0.01 µM
[3] = second compound 0.0316 µM, first compound 0.0316 µM
[4] = second compound 0.0316 µM, first compound 0.1 µM
[5] = second compound 0.0316 µM, first compound 0.316 µM
[6] = second compound 0.0316 µM, first compound 1 µM
[7] = second compound 0.1 µM, first compound 0.00316 µM
[8] = second compound 0.1 µM, first compound 0.01 µM
[9] = second compound 0.1 µM, first compound 0.0316 µM
[10] = second compound 0.1 µM, first compound 0.1 µM
[11] = second compound 0.1 µM, first compound 0.316 µM
[12] = second compound 0.1 µM, first compound 1 µM
[13] = second compound 0.316 µM, first compound 0.00316 µM
[14] = second compound 0.316 µM, first compound 0.01 µM
[15] = second compound 0.316 µM, first compound 0.0316 µM
[16] = second compound 0.316 µM, first compound 0.1 µM
[17] = second compound 0.316 µM, first compound 0.316 µM
[18] = second compound 0.316 µM, first compound 1 µM
[19] = second compound 1 µM, first compound 0.00316 µM
[20] = second compound 1 µM, first compound 0.01 µM
[21] = second compound 1 µM, first compound 0.0316 µM
[22] = second compound 1 µM, first compound 0.1 µM
[23] = second compound 1 µM, first compound 0.316 µM
[24] = second compound 1 µM, first compound 1 µM
[25] = second compound 3.16 µM, first compound 0.00316 µM
[26] = second compound 3.16 µM, first compound 0.01 µM
[27] = second compound 3.16 µM, first compound 0.0316 µM
[28] = second compound 3.16 µM, first compound 0.1 µM
[29] = second compound 3.16 µM, first compound 0.316 µM
[30] = second compound 3.16 µM, first compound 1 µM
[31] = second compound 10 µM, first compound 0.00316 µM
[32] = second compound 10 µM, first compound 0.01 µM
[33] = second compound 10 µM, first compound 0.0316 µM
[34] = second compound 10 µM, first compound 0.1 µM
[35] = second compound 10 µM, first compound 0.316 µM
[36] = second compound 10 µM, first compound 1 µM
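Further: spheroids exposed to agents for 7 days before viability reading.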
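Wherever viability, T/C is given: percent of DMSO vehicle control viability so 100% = vehicle and 0% = no viable signal.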

## C=CCn1c(=O)c2cnc(Nc3ccc(N4CCN(C)CC4)cc3)nc2n1-c1cccc(C(C)(C)O)n1 + Cc1cccc(N(C)C(=O)C2C(O)CCN2c2nc(C)cc(C(F)(F)F)c2C#N)c1
Second compound 0.0316 µM
  IC50: > 1000 nM
Second compound 0.1 µM
  IC50: > 1000 nM
Second compound 0.316 µM
  IC50: > 1000 nM
Second compound 1 µM
  IC50: > 1000 nM
Second compound 3.16 µM
  IC50: > 1000 nM
Second compound 10 µM
  IC50: > 1000 nM
[1]
  viability, T/C: 94.8%
[2]
  viability, T/C: 91%
[3]
  viability, T/C: 87.4%
[4]
  viability, T/C: 86.9%
[5]
  viability, T/C: 80.3%
[6]
  viability, T/C: 73%
[7]
  viability, T/C: 87.9%
[8]
  viability, T/C: 90.2%
[9]
  viability, T/C: 95.6%
[10]
  viability, T/C: 83.9%
[11]
  viability, T/C: 82.2%
[12]
  viability, T/C: 68.7%
[13]
  viability, T/C: 88.8%
[14]
  viability, T/C: 91.4%
[15]
  viability, T/C: 89.4%
[16]
  viability, T/C: 82.7%
[17]
  viability, T/C: 85.4%
[18]
  viability, T/C: 69.8%
[19]
  viability, T/C: 96.5%
[20]
  viability, T/C: 85.2%
[21]
  viability, T/C: 102%
[22]
  viability, T/C: 84%
[23]
  viability, T/C: 80.2%
[24]
  viability, T/C: 67%
[25]
  viability, T/C: 83.3%
[26]
  viability, T/C: 107%
[27]
  viability, T/C: 97.6%
[28]
  viability, T/C: 99.2%
[29]
  viability, T/C: 81.7%
[30]
  viability, T/C: 65.4%
[31]
  viability, T/C: 84.8%
[32]
  viability, T/C: 89.3%
[33]
  viability, T/C: 89.2%
[34]
  viability, T/C: 86.7%
[35]
  viability, T/C: 78.1%
[36]
  viability, T/C: 73.9%

## CC[C@@]1(O)C(=O)OCc2c1cc1n(c2=O)Cc2cc3c(CN(C)C)c(O)ccc3nc2-1 + Cc1cccc(N(C)C(=O)C2C(O)CCN2c2nc(C)cc(C(F)(F)F)c2C#N)c1
Second compound 0.0316 µM
  IC50: > 100 nM
Second compound 0.1 µM
  IC50: > 100 nM
Second compound 0.316 µM
  IC50: > 100 nM
Second compound 1 µM
  IC50: > 100 nM
Second compound 3.16 µM
  IC50: > 100 nM
Second compound 10 µM
  IC50: > 100 nM
Second compound 0.0316 µM, first compound 0.000316 µM
  viability, T/C: 104%
Second compound 0.0316 µM, first compound 0.001 µM
  viability, T/C: 118%
[1]
  viability, T/C: 95.4%
[2]
  viability, T/C: 90.2%
[3]
  viability, T/C: 81.3%
[4]
  viability, T/C: 67.3%
Second compound 0.1 µM, first compound 0.000316 µM
  viability, T/C: 103%
Second compound 0.1 µM, first compound 0.001 µM
  viability, T/C: 103%
[7]
  viability, T/C: 91%
[8]
  viability, T/C: 112%
[9]
  viability, T/C: 82.5%
[10]
  viability, T/C: 58.2%
Second compound 0.316 µM, first compound 0.000316 µM
  viability, T/C: 101%
Second compound 0.316 µM, first compound 0.001 µM
  viability, T/C: 99.2%
[13]
  viability, T/C: 116%
[14]
  viability, T/C: 93.6%
[15]
  viability, T/C: 76.4%
[16]
  viability, T/C: 63.2%
Second compound 1 µM, first compound 0.000316 µM
  viability, T/C: 111%
Second compound 1 µM, first compound 0.001 µM
  viability, T/C: 97.5%
[19]
  viability, T/C: 111%
[20]
  viability, T/C: 99.9%
[21]
  viability, T/C: 81.2%
[22]
  viability, T/C: 58.7%
Second compound 3.16 µM, first compound 0.000316 µM
  viability, T/C: 99.7%
Second compound 3.16 µM, first compound 0.001 µM
  viability, T/C: 106%
[25]
  viability, T/C: 112%
[26]
  viability, T/C: 97.5%
[27]
  viability, T/C: 80.5%
[28]
  viability, T/C: 64.1%
Second compound 10 µM, first compound 0.000316 µM
  viability, T/C: 102%
Second compound 10 µM, first compound 0.001 µM
  viability, T/C: 105%
[31]
  viability, T/C: 95.6%
[32]
  viability, T/C: 91.8%
[33]
  viability, T/C: 85.5%
[34]
  viability, T/C: 68.8%

## CCc1c2c(nc3ccc(O)cc13)-c1cc3c(c(=O)n1C2)COC(=O)[C@]3(O)CC + Cc1cccc(N(C)C(=O)C2C(O)CCN2c2nc(C)cc(C(F)(F)F)c2C#N)c1
Second compound 0.0316 µM
  IC50: 39.2 nM
Second compound 0.1 µM
  IC50: 37.1 nM
Second compound 0.316 µM
  IC50: 48.8 nM
Second compound 1 µM
  IC50: 46.5 nM
Second compound 3.16 µM
  IC50: 62.7 nM
Second compound 10 µM
  IC50: 49.8 nM
[1]
  viability, T/C: 64.4%
[2]
  viability, T/C: 54.2%
[3]
  viability, T/C: 48.2%
[4]
  viability, T/C: 46.4%
[5]
  viability, T/C: 30.4%
[6]
  viability, T/C: 10.9%
[7]
  viability, T/C: 78.5%
[8]
  viability, T/C: 57.1%
[9]
  viability, T/C: 49.8%
[10]
  viability, T/C: 44.9%
[11]
  viability, T/C: 26.1%
[12]
  viability, T/C: 8.04%
[13]
  viability, T/C: 79.2%
[14]
  viability, T/C: 55.2%
[15]
  viability, T/C: 50.5%
[16]
  viability, T/C: 51.6%
[17]
  viability, T/C: 29.1%
[18]
  viability, T/C: 8.39%
[19]
  viability, T/C: 77.9%
[20]
  viability, T/C: 61.1%
[21]
  viability, T/C: 52.3%
[22]
  viability, T/C: 47.4%
[23]
  viability, T/C: 26.1%
[24]
  viability, T/C: 10.2%
[25]
  viability, T/C: 87%
[26]
  viability, T/C: 68.8%
[27]
  viability, T/C: 56.3%
[28]
  viability, T/C: 48.6%
[29]
  viability, T/C: 29.7%
[30]
  viability, T/C: 12.6%
[31]
  viability, T/C: 78.5%
[32]
  viability, T/C: 58%
[33]
  viability, T/C: 51.4%
[34]
  viability, T/C: 47.9%
[35]
  viability, T/C: 33.2%
[36]
  viability, T/C: 9.43%
